Data published in patent publication US4459296A, “Piperazines and homopiperazines, N-substituted by an aromatic heterocyclic group, and their use in therapeutics” (Delalande S.A., priority 1982, dated 1984).
Where two headings read alike, the source gives them in different places.

Columns and labels:
[1] = test system: S.H.R. rats (genetically hypertensive); test: Antihypertensive activity by oral administration to S.H.R. rats (genetically hypertensive); assay type: in vivo
Experimental: The arterial blood pressure was recorded on an APELAB-BP recorder 8002-and an electromechanical counter provided a direct reading of the heartbeat rate. The measurements were taken at 0 hour, 2 hours, 4 hours, 6 hours and 24 hours after administration of the compounds tested.
To illustrate the invention, the results obtained with some of the compounds of the invention are shown in Table II below in which the symbols AHY, ΔPA and ΔFC have the following meanings:
AHY=% of rats whose arterial blood pressure drops by a value greater than or equal to 20% of the initial value or is brought down to a value less than 150 mmHg,
ΔPA=% variation of the arterial blood pressure in all the animals tested with respect to the initial blood pressure,
ΔFC=% variation of the heart-beat rate of all the animals tested with respect to the initial rate.

[2] = Acute toxicity assessed intravenously in mice (method of Miller and Tainter); conditions: mouse, in vivo; for LD50: read-out: Acute toxicity LD 50
[3] = dose 50, 4 hours after administration
[4] = dose 50, 6 hours after administration
[5] = dose 50, 24 hours after administration
[6] = po, 1000 mg/kg, p.o., read-out: Acute toxicity (mice), % at 1000 (p.o.)
[7] = iv, 200 mg/kg, i.v., read-out: Acute toxicity (mice), % at 200 mg/kg i.v. (printed "at 200 (0%)")

Compound: (piperazino-4 (7) benzotriazole, dihydrochloride [Code No. 39]
- AHY (% of rats whose arterial blood pressure drops by ≥20% of initial value or to <150 mmHg) [1, 3]: 33%
- ΔPA (% variation of the arterial blood pressure vs initial) [1, 3]: -15%
- AHY (% of rats whose arterial blood pressure drops by ≥20% of initial value or to <150 mmHg) [1, 4]: 67%
- ΔFC (% variation of the heart-beat rate vs initial) [1, 4]: +3%
- ΔPA (% variation of the arterial blood pressure vs initial) [1, 4]: -21%
- ΔFC (% variation of the heart-beat rate vs initial) [1, 5]: 0%

Compound: CCOC(=O)N1CCN(c2cccc3[nH]c(C)nc23)CC1 [compound 26]
- LD50 ([2]; iv): 200 mg/kg

Compound: CCOC(=O)N1CCN(c2cccc3[nH]cnc23)CC1 [compound 13]
- LD50 ([2]; iv): 160 mg/kg

Compound: (carbethoxy-4 piperazino-1)-6 purine [Code No. 25]
- AHY (% of rats whose arterial blood pressure drops by ≥20% of initial value or to <150 mmHg) [1, 3]: 14%
- ΔFC (% variation of the heart-beat rate vs initial) [1, 3]: -5%
- ΔPA (% variation of the arterial blood pressure vs initial) [1, 3]: -8%
- AHY (% of rats whose arterial blood pressure drops by ≥20% of initial value or to <150 mmHg) [1, 4]: 57%
- ΔFC (% variation of the heart-beat rate vs initial) [1, 4]: +1%
- ΔPA (% variation of the arterial blood pressure vs initial) [1, 4]: -14%
- AHY (% of rats whose arterial blood pressure drops by ≥20% of initial value or to <150 mmHg) [1, 5]: 43%
- ΔFC (% variation of the heart-beat rate vs initial) [1, 5]: -4%
- ΔPA (% variation of the arterial blood pressure vs initial) [1, 5]: -9%

Compound: c1cc(N2CCNCC2)c2[nH]ccc2c1 [compound 42]
- LD50 ([2]; iv): 70 mg/kg

Compound: (benzyloxycarbonyl-4 piperazino-1)-4 indole [Code No. 40]
- AHY (% of rats whose arterial blood pressure drops by ≥20% of initial value or to <150 mmHg) [1, 3]: 86%
- ΔFC (% variation of the heart-beat rate vs initial) [1, 3]: -11%
- ΔPA (% variation of the arterial blood pressure vs initial) [1, 3]: -23%
- AHY (% of rats whose arterial blood pressure drops by ≥20% of initial value or to <150 mmHg) [1, 4]: 86%
- ΔFC (% variation of the heart-beat rate vs initial) [1, 4]: -8%
- ΔPA (% variation of the arterial blood pressure vs initial) [1, 4]: -23%
- AHY (% of rats whose arterial blood pressure drops by ≥20% of initial value or to <150 mmHg) [1, 5]: 0%
- ΔFC (% variation of the heart-beat rate vs initial) [1, 5]: -9%
- ΔPA (% variation of the arterial blood pressure vs initial) [1, 5]: -2%

Compound: CSc1nnc(C(=O)N2CCN(c3cccc4[nH]cnc34)CC2)o1 [compound 12]
- mortality [2, 6]: 0%

Compound: C=C(C)COC(=O)N1CCN(c2cccc3[nH]cnc23)CC1 [Code No. 17]
- mortality [2, 7]: 0%

Compound: (carbethoxy-4 piperazino-1)-4(7) benzimidazole, maleate [Code No. 13]
- AHY (% of rats whose arterial blood pressure drops by ≥20% of initial value or to <150 mmHg) [1, 4]: 71%
- ΔFC (% variation of the heart-beat rate vs initial) [1, 4]: 0%
- ΔPA (% variation of the arterial blood pressure vs initial) [1, 4]: -19%
- AHY (% of rats whose arterial blood pressure drops by ≥20% of initial value or to <150 mmHg) [1, 5]: 28%
- ΔFC (% variation of the heart-beat rate vs initial) [1, 5]: -7%
- ΔPA (% variation of the arterial blood pressure vs initial) [1, 5]: -9%

Compound: CC(C)COC(=O)N1CCN(c2cccc3[nH]cnc23)CC1 [compound 21]
- LD50 ([2]; iv): 195 mg/kg

Compound: c1cc(N2CCNCC2)c2nc[nH]c2c1 [Code No. 1, (piperazino-1)-4(7) benzimidazole, tribromhydrate]
- LD50 ([2]; iv): 125 mg/kg

Compound: CC(C)C(=O)N1CCN(c2cccc3[nH]cnc23)CC1 [Code No. 3]
- mortality [2, 7]: 0%

Compound: CCOC(=O)N1CCN(c2ncnc3nc[nH]c23)CC1 [compound 25]
- mortality [2, 7]: 0%

Compound: c1cc(N2CCNCC2)c2cc[nH]c2c1 [compound 41]
- LD50 ([2]; iv): 35 mg/kg

Compound: c1ccc(SN2CCN(c3cccc4[nH]cnc34)CC2)cc1 [compound 24]
- mortality [2, 6]: 0%

Compound: CCOC(=O)C1CCN(c2cccc3[nH]cnc23)CC1 [compound 30]
- LD50 ([2]; iv): 185 mg/kg

Compound: c1cc(N2CCNCC2)c2nn[nH]c2c1 [compound 39]
- LD50 ([2]; iv): 96 mg/kg

Compound: O=C(c1cccs1)N1CCN(c2cccc3[nH]cnc23)CC1 [Code No. 7]
- mortality [2, 7]: 0%
